The experiment concerns the target S-phase kinase-associated protein 2/Cyclin-dependent kinases regulatory subunit 1/S-phase kinase-associated protein 1 (Homo sapiens, UniProt Q13309). In words: Inhibition of GST-tagged Skp2/Skp1 (unknown origin)/His6-tagged Cks1 (unknown origin) interaction preincubated with Skp2/Skp1 for 10 mins followed by Cks1 addition measured after 20 mins by HTRF assay. It is filed as protein assay. (In TR-FRET formats the signal depends on donor and acceptor labels being close together.)

Broadly, the IC50 is the midpoint of a concentration-inhibition curve. A low value points to greater potency.

Chain of S-phase kinase-associated protein 2/Cyclin-dependent kinases regulatory subunit 1/S-phase kinase-associated protein 1 (P61024 whole entry): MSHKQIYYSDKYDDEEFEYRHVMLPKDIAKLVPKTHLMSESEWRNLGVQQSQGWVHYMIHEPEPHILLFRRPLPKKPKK
Chain of S-phase kinase-associated protein 2/Cyclin-dependent kinases regulatory subunit 1/S-phase kinase-associated protein 1 (Q13309 whole entry): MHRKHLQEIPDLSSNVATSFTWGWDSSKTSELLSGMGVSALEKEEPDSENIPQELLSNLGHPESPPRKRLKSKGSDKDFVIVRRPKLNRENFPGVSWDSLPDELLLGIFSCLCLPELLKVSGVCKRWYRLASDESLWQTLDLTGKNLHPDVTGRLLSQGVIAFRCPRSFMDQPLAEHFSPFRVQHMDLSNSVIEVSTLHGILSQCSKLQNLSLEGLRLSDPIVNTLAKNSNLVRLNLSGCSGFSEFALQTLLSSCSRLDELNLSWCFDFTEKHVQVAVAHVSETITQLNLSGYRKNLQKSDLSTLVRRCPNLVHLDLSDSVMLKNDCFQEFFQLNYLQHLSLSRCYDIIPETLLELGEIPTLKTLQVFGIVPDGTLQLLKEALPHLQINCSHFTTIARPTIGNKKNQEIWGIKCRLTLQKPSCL
Chain of S-phase kinase-associated protein 2/Cyclin-dependent kinases regulatory subunit 1/S-phase kinase-associated protein 1 (P63208 whole entry, further chain): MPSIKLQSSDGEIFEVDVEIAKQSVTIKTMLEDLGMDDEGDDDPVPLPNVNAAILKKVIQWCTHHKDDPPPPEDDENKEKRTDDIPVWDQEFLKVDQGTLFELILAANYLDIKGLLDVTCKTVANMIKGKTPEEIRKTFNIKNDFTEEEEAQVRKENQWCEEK

Take `CC1CN(c2cnc(-c3ccccc3)c(-c3ccccc3)n2)CCN1C(=O)OC(C)(C)C` (stereo not given): the IC50 is greater than 25 µM.

Take `CC1CCN(c2cnc(-c3ccccc3)c(-c3ccccc3)n2)CC1`: the 50% inhibitory concentration (IC50) was greater than 50 µM.

`O=C(NC1CCN(c2cnc(-c3ccccc3)c(-c3ccccc3)n2)CC1)OCc1ccccc1`: the IC50 was greater than 25 µM.

In the case of `O=C(C1CC1)N1CCN(c2cnc(-c3ccccc3)c(-c3ccccc3)n2)CC1`, the half-inhibitory concentration (IC50) worked out at 5.8 µM.

Turning to `CC(C)(C)C(=O)NCC1CCN(c2cnc(-c3ccc(N)cc3)c(-c3ccccc3)n2)CC1`, the half-maximal inhibitory concentration (IC50) was greater than 25 µM.

Turning to `Oc1cnc(-c2ccccc2)c(-c2ccccc2)n1`, the IC50 is greater than 50 µM.

For `CC(C)N(C)c1cnc(-c2ccccc2)c(-c2ccccc2)n1`, the IC50 was greater than 50 µM.

`CN(C)c1ccc(-c2ncc(N3CCC(CNC(=O)C(C)(C)C)CC3)nc2-c2ccccc2)cc1` gave an IC50 of 5.2 µM. That is a single-digit micromolar value.

As for `CN(C)CCN(C)c1cnc(-c2ccccc2)c(-c2ccccc2)n1`, the 50% inhibitory concentration (IC50) is greater than 50 µM.

`Cc1ccc(S(=O)(=O)NC2CCN(c3cnc(-c4ccccc4)c(-c4ccccc4)n3)CC2)cc1` came in with an IC50 greater than 25 µM.

As for `c1ccc(-c2ncc(NC3CCCCC3)nc2-c2ccccc2)cc1`, the IC50 is greater than 50 µM.

For `O=C(CCCl)NCC1CCN(c2cnc(-c3ccccc3)c(-c3ccccc3)n2)CC1`, the IC50 came to 13.1 µM.

`CN(CCNC(=O)OC(C)(C)C)c1cnc(-c2ccccc2)c(-c2ccccc2)n1` returned an IC50 of 20.2 µM.

The compound `O=C(CCl)N1CCN(c2cnc(-c3ccccc3)c(-c3ccccc3)n2)CC1` came in with an IC50 of 9.9 µM.

In turn, `CC(C)N(CCCCOCC(=O)Nc1ccccc1)c1cnc(-c2ccccc2)c(-c2ccccc2)n1` came in with a 50% inhibitory concentration (IC50) greater than 50 µM.

In the case of `O=C(NC1CCN(c2cnc(-c3ccccc3)c(-c3ccccc3)n2)CC1)Oc1ccccc1`, the IC50 is 13.5 µM.

`CS(=O)(=O)NC(=O)COCCNc1cnc(-c2ccccc2)c(-c2ccccc2)n1` yielded an IC50 greater than 50 µM.

In turn, `O=C(CBr)NCC1CCN(c2cnc(-c3ccccc3)c(-c3ccccc3)n2)CC1` gave a 50% inhibitory concentration (IC50) greater than 25 µM.

Consider `CN(C)CCNc1cnc(-c2ccccc2)c(-c2ccccc2)n1`, for which the concentration for half-maximal inhibition (IC50) is greater than 50 µM.

`CC(=O)N1CCN(c2cnc(-c3ccccc3)c(-c3ccccc3)n2)CC1`: the half-maximal inhibitory concentration (IC50) was found to be 17.9 µM.

As for `O=C(NCC1CCN(c2cnc(-c3ccccc3)c(-c3ccccc3)n2)CC1)C1CC1`, the IC50 amounted to 3.3 µM. This IC50 lies about 5.4-fold lower than the previous one.

On to `CC(C)N(CCCCOCC(=O)Nc1nccs1)c1cnc(-c2ccccc2)c(-c2ccccc2)n1`, for which the half-maximal inhibitory concentration (IC50) is greater than 50 µM.

As for `C=Cc1ncc(N2CCC(CNC(=O)C(C)(C)C)CC2)nc1-c1ccccc1`, the IC50 is greater than 25 µM.

Compound `CNc1cnc(-c2ccccc2)c(-c2ccccc2)n1` showed an IC50 greater than 50 µM.

With `O=C(CBr)N1CCN(c2cnc(-c3ccccc3)c(-c3ccccc3)n2)CC1`, the 50% inhibitory concentration (IC50) is greater than 25 µM.

The compound `CC(C)(C)C(=O)N1CCN(c2cnc(-c3ccccc3)c(-c3ccccc3)n2)CC1` yielded an IC50 of 13.2 µM.

With `CC(C)N(CCCCOCC(=O)O)c1cnc(-c2ccccc2)c(-c2ccccc2)n1` [LASELIPAG], the concentration for half-maximal inhibition (IC50) was greater than 50 µM.

Take `CN(C)C1CCN(c2cnc(-c3ccccc3)c(-c3ccccc3)n2)CC1`: the half-maximal inhibitory concentration (IC50) was greater than 50 µM.

On to `CC(C)COC(=O)NC1CCN(c2cnc(-c3ccccc3)c(-c3ccccc3)n2)CC1`, for which the 50% inhibitory concentration (IC50) was greater than 25 µM.

`CC(C)(C)C(=O)NCC1CCN(c2cnc(-c3cncnc3)c(-c3ccccc3)n2)CC1` returned a half-maximal inhibitory concentration (IC50) greater than 25 µM.

The compound `CN(C)c1cnc(-c2ccccc2)c(-c2ccccc2)n1` displayed an IC50 of 45.4 µM.

`CC(C)(C)OC(=O)NC1CCN(c2cnc(-c3ccccc3)c(-c3ccccc3)n2)C1` (stereo not given) showed an IC50 greater than 25 µM.

`CCS(=O)(=O)NC1CCN(c2cnc(-c3ccccc3)c(-c3ccccc3)n2)CC1` showed an IC50 greater than 25 µM.

The compound `CC(C)(C)C(=O)NCC1CCN(c2cnc(-c3cn[nH]c3)c(-c3ccccc3)n2)CC1` had an IC50 greater than 25 µM.

Compound `CC(C)(C)OC(=O)NC1CCCN(c2cnc(-c3ccccc3)c(-c3ccccc3)n2)C1` (stereo not given) had a 50% inhibitory concentration (IC50) greater than 25 µM.

The compound `CC(C)(C)C(=O)NCC1CCN(c2cnc(-c3ccco3)c(-c3ccccc3)n2)CC1` had an IC50 of 8.12 µM.

Consider `O=C(c1cccs1)N1CCN(c2cnc(-c3ccccc3)c(-c3ccccc3)n2)CC1`, for which the half-maximal inhibitory concentration (IC50) is greater than 25 µM.

For `CS(=O)(=O)NC(=O)COCCCCN(Cc1ccccc1)c1cnc(-c2ccccc2)c(-c2ccccc2)n1`, the IC50 was greater than 50 µM.

In turn, `CCC(=O)N1CCN(c2cnc(-c3ccccc3)c(-c3ccccc3)n2)CC1` returned a 50% inhibitory concentration (IC50) of 10 µM. That is a double-digit micromolar value.

Compound `c1ccc(-c2ncc(N3CCSCC3)nc2-c2ccccc2)cc1` returned a concentration for half-maximal inhibition (IC50) greater than 50 µM.

In turn, `CC(C)c1ncc(N2CCC(CNC(=O)C(C)(C)C)CC2)nc1-c1ccccc1` yielded an IC50 greater than 25 µM.

`CC(C)(C)C(=O)NCC1CCN(c2cnc(-c3ccc(C(F)(F)F)cc3)c(-c3ccccc3)n2)CC1` came in with an IC50 of 10.9 µM.

`O=C(NCC1CCN(c2cnc(-c3ccccc3)c(-c3ccccc3)n2)CC1)C(F)(F)F` gave a concentration for half-maximal inhibition (IC50) of 15.6 µM.

As for `C=CC(=O)NCC1CCN(c2cnc(-c3ccccc3)c(-c3ccccc3)n2)CC1`, the IC50 was greater than 25 µM.

Consider `CN(c1cnc(-c2ccccc2)c(-c2ccccc2)n1)C1CCCCC1`, for which the half-inhibitory concentration (IC50) is greater than 50 µM.

On to `CC(C)(C)OC(=O)NC1CCN(c2cnc(-c3ccccc3)c(-c3ccccc3)n2)CC1`, for which half-maximal inhibition (IC50) required 13.7 µM.

Compound `CN1CCN(c2cnc(-c3ccccc3)c(-c3ccccc3)n2)CC1` registered a concentration for half-maximal inhibition (IC50) greater than 50 µM.

As to `CC(C)(C)OC(=O)N1CCCN(c2cnc(-c3ccccc3)c(-c3ccccc3)n2)CC1`, inhibition was half-maximal at 24.5 µM (IC50).

Compound `O=C(N1CCOCC1)N1CCN(c2cnc(-c3ccccc3)c(-c3ccccc3)n2)CC1` had an IC50 greater than 25 µM.

`c1ccc(-c2ncc(NCCN3CCOCC3)nc2-c2ccccc2)cc1` showed an IC50 greater than 50 µM.

Compound `CC(=O)NCC1CCN(c2cnc(-c3ccccc3)c(-c3ccccc3)n2)CC1` displayed an IC50 of 12.4 µM.

The compound `CC(C)(C)C(=O)NCC1CCN(c2cnc(C3CCCCC3)c(-c3ccccc3)n2)CC1` displayed an IC50 greater than 25 µM.

In the case of `CC(C)(C)C(=O)NCC1CCN(c2cnc(Br)c(-c3ccccc3)n2)CC1`, the IC50 was greater than 25 µM.

Compound `COc1cnc(-c2ccccc2)c(-c2ccccc2)n1` registered an IC50 greater than 50 µM.

As for `C=CC(=O)N1CCN(c2cnc(-c3ccccc3)c(-c3ccccc3)n2)CC1`, the half-inhibitory concentration (IC50) is greater than 25 µM.

With `CC(C)(C)C(=O)NCC1CCN(c2cnc(-c3ccccc3CO)c(-c3ccccc3)n2)CC1`, the IC50 is greater than 25 µM.

In turn, `O=C(c1ccccc1)N1CCN(c2cnc(-c3ccccc3)c(-c3ccccc3)n2)CC1` had an IC50 of 17.7 µM.

`CC(C)(C)C(=O)NCC1CCN(c2cnc(-c3ccncc3)c(-c3ccccc3)n2)CC1` had a 50% inhibitory concentration (IC50) greater than 25 µM.

Take `O=C(C1CCCCC1)N1CCN(c2cnc(-c3ccccc3)c(-c3ccccc3)n2)CC1`: the IC50 is greater than 25 µM.

As for `O=C(NCC1CCN(c2cnc(-c3ccccc3)c(-c3ccccc3)n2)CC1)C1CCCCC1`, the IC50 stood at 8.5 µM.

On to `O=C(NCC1CCN(c2cnc(-c3ccccc3)c(-c3ccccc3)n2)CC1)c1cccs1`, for which the IC50 was determined as 8.5 µM.

In the case of `O=C(CCl)NCC1CCN(c2cnc(-c3ccccc3)c(-c3ccccc3)n2)CC1`, the 50% inhibitory concentration (IC50) was greater than 25 µM.

In turn, `Cc1ccc(S(=O)(=O)NC(=O)COCCCCN(c2cnc(-c3ccccc3)c(-c3ccccc3)n2)C(C)C)cc1` had an IC50 greater than 50 µM.

With `CC(C)(C)C(=O)NCC1CCN(c2cnc(-c3cccc(CO)c3)c(-c3ccccc3)n2)CC1`, the IC50 is greater than 25 µM.

`OCC1CCN(c2cnc(-c3ccccc3)c(-c3ccccc3)n2)CC1`: the IC50 is greater than 50 µM.

Values taken from ChEMBL document CHEMBL5338791, “Discovery of Novel 1,3-Diphenylpyrazine Derivatives as Potent S-Phase Kinase-Associated Protein 2 (Skp2) Inhibitors for the Treatment of Cancer” (J Med Chem, 2023).
